Experimental data published in US20100234395A1, “UREIDE DERIVATIVE AND PHARMACEUTICAL APPLICATION THEREOF” (TORAY INDUSTRIES, INC., priority 2006, published 2010).
Read-outs that look alike come from different tables or passages of the source.

Columns and labels:
COX-1 = target: T1, COX-1 (Homo sapiens, UniProt P23219); assay: Activity of inhibiting COX-1 in human blood (thromboxane B2 after ionomycin); format: cell-based; conditions: thromboxane B2 production
T1 construct: Human blood that had been sampled with the use of heparin (19 units/ml) was used; from tissue; host or cells: human whole blood (heparinised)
Method: Human blood that had been sampled with the use of heparin (19 units/ml) was used. Blood was fractionated to reaction tubes in amounts of 500 μl, the test compound or solvent was added thereto, and the resultants were incubated at 37° C. for 60 minutes. Dimethyl sulfoxide (DMSO) was used as a solvent for the test compound. Thereafter, ionomycin (30 nM) was added, and the reaction was allowed to proceed for 30 minutes. After the completion of the reaction, the supernatant (blood plasma) was recovered via centrifugation at 4° C., and the amount of thromboxane B2 in the plasma was quantified using a kit (519031, Cayman Chemical). The amount of thromboxane B2 produced via the addition of ionomycin was designated as 100%, and the concentration of the test compound that inhibits 50% of such reaction was represented by the IC50 value.

COX-2 = target: T2, COX-2 (Homo sapiens, UniProt P35354); assay: Activity of inhibiting COX-2 in human blood (prostaglandin E2 after lipopolysaccharide); format: cell-based; conditions: prostaglandin E2 production
T2 construct: Human blood that had been sampled with the use of heparin (19 units/ml) was used; from tissue; host or cells: human whole blood (heparinised), aspirin-pretreated, stimulated with lipopolysaccharide
T2 sequence (P35354 18-604): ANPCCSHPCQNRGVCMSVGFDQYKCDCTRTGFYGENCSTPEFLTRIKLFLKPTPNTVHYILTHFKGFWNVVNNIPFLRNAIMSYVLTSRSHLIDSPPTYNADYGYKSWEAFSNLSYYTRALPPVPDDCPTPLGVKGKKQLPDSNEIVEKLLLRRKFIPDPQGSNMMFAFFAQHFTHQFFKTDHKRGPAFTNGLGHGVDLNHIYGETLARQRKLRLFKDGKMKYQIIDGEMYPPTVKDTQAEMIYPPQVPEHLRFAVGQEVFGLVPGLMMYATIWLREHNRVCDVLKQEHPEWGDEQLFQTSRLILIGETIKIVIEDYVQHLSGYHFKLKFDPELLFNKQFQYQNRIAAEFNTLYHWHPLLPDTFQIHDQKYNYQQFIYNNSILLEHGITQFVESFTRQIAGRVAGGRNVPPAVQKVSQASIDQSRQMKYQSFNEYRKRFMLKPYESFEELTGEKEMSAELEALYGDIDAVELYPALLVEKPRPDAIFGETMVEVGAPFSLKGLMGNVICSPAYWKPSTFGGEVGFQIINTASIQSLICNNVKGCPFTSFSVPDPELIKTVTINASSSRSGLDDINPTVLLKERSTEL
Method: Human blood that had been sampled with the use of heparin (19 units/ml) was used. Blood was fractionated to reaction tubes in amounts of 500 μl, aspirin (12 μg/ml) was added thereto, and the resultants were incubated at 37° C. for 6 hours. Thereafter, the test compound or solvent, and lipopolysaccharide (10 μg/ml) were added, and the reaction was allowed to proceed for 18 hours. After the completion of the reaction, the supernatant (blood plasma) was recovered via centrifugation at 4° C., and the amount of prostaglandin E2 in the plasma was quantified using a kit (514010, Cayman Chemical). Dimethyl sulfoxide (DMSO) was used as a solvent for the test compound. The amount of prostaglandin E2 produced via the addition of lipopolysaccharide was designated as 100%, and the concentration of the test compound that inhibits 50% of such reaction was represented by the IC50 value.

ddY mice = assay: Acetic acid writhing test in mice (analgesic effects); format: in vivo; conditions: Mus musculus
Method: ddY mice were grown for at least 16 hours under fasting conditions while free water intake was allowed, and a solution of the test compound or a solvent was orally administered thereto (0.1 ml/10 g). As a solvent for a solution of the test compound, dimethyl sulfoxide (DMSO):Tween 80:27% hydroxypropyl-P-cyclodextrin (hereafter abbreviated to “HP-β-CD”) (1:1:8) or 27% HP-β-CD was used. A solution of 0.6% acetic acid (0.1 ml/10 g) was administered intraperitoneally 45 minutes after administration to induce a writhing reaction (i.e., a movement of stretching or arching the body). The number of the writhing reactions that had occurred for the period from 10 minutes after administration of the acetic acid solution to 10 minutes thereafter was counted, and the number of times was designated as an indicator of pain. The number of times of reactions in the group to which a solvent had been administered was designated as 100%, and the concentration of the test compound that had inhibited 50% of such reaction was designated as the ED50 value.
The compound of Reference Example 78 is disclosed in the claims of JP Patent Publication (kohyo) No. 2006-517535 A, the compounds of Reference Examples 93 and 199 are disclosed in the claims of JP Patent No. 3003148, and the compound of Reference Example 103 is disclosed in the claims of JP Patent Publication (kohyo) No. 2006-514095 A. Thus, these compounds were compared with the compounds of the present invention having similar structures in terms of analgesic effects with oral administration (Table 4) or subcutaneous administration (Table 5). Dimethyl sulfoxide (DMSO):Tween 80:27% HP-β-CD (1:1:8) or 27% HP-β-CD was used as a solvent for the test compound.

[1] = oral administration 45 minutes before 0.6% acetic acid i.p., 50% inhibition of writhing reactions, read-out: ED50 (mg/kg)[90% confidence limit]
[2] = sc, Table 5, subcutaneous administration, read-out: ED50 (mg/kg) [90% confidence limit]

T1 sequence (P23219 24-599): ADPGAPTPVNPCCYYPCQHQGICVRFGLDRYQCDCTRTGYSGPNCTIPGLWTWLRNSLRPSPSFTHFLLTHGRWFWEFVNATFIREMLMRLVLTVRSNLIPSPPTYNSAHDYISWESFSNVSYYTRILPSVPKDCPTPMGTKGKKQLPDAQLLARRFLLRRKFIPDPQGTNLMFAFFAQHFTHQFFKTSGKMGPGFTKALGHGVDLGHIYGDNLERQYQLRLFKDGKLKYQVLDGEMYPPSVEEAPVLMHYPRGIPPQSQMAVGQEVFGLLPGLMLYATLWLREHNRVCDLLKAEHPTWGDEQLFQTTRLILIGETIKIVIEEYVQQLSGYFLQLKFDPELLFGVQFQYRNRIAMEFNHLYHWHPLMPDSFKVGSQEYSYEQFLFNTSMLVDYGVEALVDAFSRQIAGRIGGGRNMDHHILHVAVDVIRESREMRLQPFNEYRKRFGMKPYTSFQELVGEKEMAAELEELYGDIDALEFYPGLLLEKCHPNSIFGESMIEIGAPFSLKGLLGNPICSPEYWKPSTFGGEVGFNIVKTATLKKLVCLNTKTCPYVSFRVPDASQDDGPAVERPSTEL

SMILES	IC50 (COX-1) [µM]	IC50 (COX-2) [µM]	ED50 (ddY mice; [1]) [mg/kg]	ED50 (ddY mice; [2]) [mg/kg]	ED50 (ddY mice; Table 4, oral administration, comparison with similar known compound, read-out: ED50 (mg/kg) [90% confidence limit]) [mg/kg]
COc1ccc(-c2nc(C3CCN(C(=O)N(C)OC)CC3)sc2-c2ccc(OC)cc2)cc1 [Example 61, 4-(4,5-Bis(4-methoxyphenyl)thiazol-2-yl)-1-(N-methoxy-N-methylcarbamoyl)piperidine]	< 0.1	> 10	–	–	–
COc1ccc(-n2nc(C3CCN(C(=O)N(C)O)CC3)cc2-c2ccc(C)cc2)cc1 [Example 69, 4-(1-(4-Methoxyphenyl)-5-(4-tolyl)-1H-pyrazol-3-yl)-1-(N-hydroxy-N-methylcarbamoyl)piperidine]	< 0.1	> 10	3.19	–	–
COc1ccc(-c2cc(C3CC4CCC(C3)N4C(=O)N(C)O)nn2-c2ccc(OC)cc2)cc1 (stereo not shown) [Example 68, 3-(1,5-Bis(4-methoxyphenyl)-1H-pyrazol-3-yl)-8-(N-hydroxy-N-methylcarbamoyl)-8-azabicyclo[3.2.1]octane]	< 0.1	> 10	–	–	–
COc1ccc(-c2nc(C3CCN(C(=O)N(O)C(C)C)CC3)oc2-c2ccc(OC)cc2)cc1 [Example 15, 4-(4,5-Bis(4-methoxyphenyl)oxazol-2-yl)-1-(N-isopropyl-N-hydroxycarbamoyl)piperidine]	< 0.1	> 10	–	–	–
COc1ccc(-c2nc(C3CCN(C(=O)N(O)C(C)C)CC3)sc2-c2ccc(OC)cc2)cc1 [Example 60, 4-(4,5-Bis(4-methoxyphenyl)thiazol-2-yl)-1-(N-hydroxy-N-isopropylcarbamoyl)piperidine]	< 0.1	> 10	–	–	–
CCN(O)C(=O)N1CCC(c2nc(-c3ccc(OC)cc3)c(-c3ccc(OC)cc3)o2)CC1 [Example 19, 4-(4,5-Bis(4-methoxyphenyl)oxazol-2-yl)-1-(N-hydroxy-N-ethylcarbamoyl)piperidine]	< 0.1	> 10	–	–	–
CN(O)C(=O)N1CCC(c2nc(-c3ccc(F)cc3)c(-c3ccccc3)o2)CC1 [Example 13, 4-(4-(4-Fluorophenyl)-5-phenyloxazol-2-yl)-1-(N-hydroxy-N-methylcarbamoyl)piperidine]	–	–	2.62	–	–
COc1ccc(-c2nc(C3CCN(C(=O)N(C)O)CC3)oc2-c2ccc(OCCO)cc2)cc1 [Example 77]	< 0.1	> 10	–	–	–
COc1ccc(-c2nc(C3(C#N)CCN(C(=O)N(C)O)CC3)oc2-c2ccc(OC)cc2)cc1 [Example 47, 4-(4,5-Bis(4-methoxyphenyl)oxazol-2-yl)-4-cyano-1-(N-hydroxy-N-methylcarbamoyl)piperidine]	< 0.1	> 10	3.3	–	–
COc1ccc(-c2cc(C3CCN(C(=O)N(C)O)CC3)sc2-c2ccc(OC)cc2)cc1 [Example 39, 4-(4,5-Bis(4-methoxyphenyl)thiophen-2-yl)-1-(N-hydroxy-N-methylcarbamoyl)piperidine]	< 0.1	> 10	–	–	–
COc1ccc(-c2nc(C3(C)CCN(C(=O)N(C)O)CC3)oc2-c2ccc(OC)cc2)cc1 [Example 42, 4-(4,5-Bis(4-methoxyphenyl)oxazol-2-yl)-1-(N-hydroxy-N-methylcarbamoyl)-4-methylpiperidine]	< 0.1	> 10	–	–	–
CNC(=O)N1CCC(c2nc(-c3ccc(OC)cc3)c(-c3ccc(OC)cc3)s2)CC1 [Reference Example1 199, reference compound]	–	–	–	34.4	–
COc1ccc(-c2cc(C3CCN(C(=O)N(C)O)CC3)oc2-c2ccc(OC)cc2)cc1 [Example 38, 4-(4,5-bis(4-methoxyphenyl)furan-2-yl)-1-(N-hydroxy-N-methylcarbamoyl)piperidine]	< 0.1	> 10	–	–	–
COc1ccc(-c2nc(C3CCNCC3)sc2-c2ccc(OC)cc2)cc1 [Reference Example 93, 4-(4,5-Bis(4-methoxyphenyl)thiazol-2-yl)piperidine, reference compound]	–	–	–	> 100	–
COc1ccc(-c2nc(C3CCNCC3)oc2-c2ccc(OC)cc2)cc1 [Reference Example 78, 4-(4,5-Bis(4-methoxyphenyl)oxazol-2-yl)piperidine, reference compound]	–	–	–	–	> 100
COc1ccc(-c2nc(C3(C)CCN(C(=O)N(C)O)CC3)sc2-c2ccc(OC)cc2)cc1 [Example 55, 4-(4,5-Bis(4-methoxyphenyl)thiazol-2-yl)-1-(N-hydroxy-N-methylcarbamoyl)-4-methylpiperidine]	< 0.1	> 10	–	–	–
COc1ccc(-c2cc(C3CCN(C(=O)N(C)O)CC3)[nH]c2-c2ccc(OC)cc2)cc1 [Example 34, 4-(4,5-Bis(4-methoxyphenyl)-1H-pyrrol-2-yl)-1-(N-hydroxy-N-methylcarbamoyl)piperidine]	< 0.1	> 10	–	–	–
COc1ccc(-c2nc(C3CCN(C(=O)N(O)C4CCCCC4)CC3)oc2-c2ccc(OC)cc2)cc1 [Example 16, 4-(4,5-Bis(4-methoxyphenyl)oxazol-2-yl)-1-(N-cyclohexyl-N-hydroxycarbamoyl)piperidine]	< 0.1	> 10	–	–	–
COc1ccc(-c2nc(C3CCN(C(=O)N(C)OC)CC3)oc2-c2ccc(OC)cc2)cc1 [Example 24, 4-(4,5-Bis(4-methoxyphenyl)oxazol-2-yl)-1-(N-methoxy-N-methylcarbamoyl)piperidine]	< 0.1	> 10	–	–	–
COc1ccc(-c2nc(C3(c4ccccc4)CCN(C(=O)N(C)O)CC3)oc2-c2ccc(OC)cc2)cc1 [Example 48, 4-(4,5-Bis(4-methoxyphenyl)oxazol-2-yl)-(N-hydroxy-N-methylcarbamoyl)-4-phenylpiperidine]	< 0.1	> 10	–	–	–
COc1ccc(-c2nc(N3CCN(C(=O)N(C)O)CC3)sc2-c2ccc(OC)cc2)cc1 [Example 57, 4-(4,5-Bis(4-methoxyphenyl)thiazol-2-yl)-1-(N-hydroxy-N-methylcarbamoyl)piperazine]	–	–	9.79	–	–
COc1ccc(-n2nc(C3CCN(C(=O)N(C)O)CC3)cc2-c2cccnc2OC)cc1 [Example 67, 4-(1-(4-Methoxyphenyl)-5-(2-methoxypyridin-3-yl)-1H-pyrazol-3-yl)-1-(N-hydroxy-N-methylcarbamoyl)piperidine]	–	–	2.51	–	–
COc1ccc(-c2cc(C3CCNCC3)nn2-c2ccc(OC)cc2)cc1 [Reference Example 103, 4-(1,5-Bis(4-methoxyphenyl)-1H-pyrazol-3-yl)piperidine, reference compound]	–	–	–	> 100	–
CCCC1(c2nc(-c3ccc(OC)cc3)c(-c3ccc(OC)cc3)o2)CCN(C(=O)N(C)O)CC1 [Example 74, 4-(1,5-Bis(4-methoxyphenyl)oxazol-2-yl)-4-propyl-1-(N-hydroxy-N-methylcarbamoyl)piperidine]	< 0.1	> 10	–	–	–
